Patent US20260092061A1, “COMPOUNDS FOR TARGETED PROTEIN DEGRADATION” (Amphista Therapeutics Limited, priority 2022, published 2026)

What was measured:
BRD9 [1] = target: T1, BRD9 (Homo sapiens, UniProt Q9H8M2); test: Degradation of BRD9 (IF), immunofluorescence in MV4-11 cells, 24 hours (Assay Protocol 2); assay type: cell-based; parameters: A suspension of MV4-11 cells (ATCC CRL-9591) was prepared; host or cells: MV4-11
T1 sequence (Q9H8M2 1-597): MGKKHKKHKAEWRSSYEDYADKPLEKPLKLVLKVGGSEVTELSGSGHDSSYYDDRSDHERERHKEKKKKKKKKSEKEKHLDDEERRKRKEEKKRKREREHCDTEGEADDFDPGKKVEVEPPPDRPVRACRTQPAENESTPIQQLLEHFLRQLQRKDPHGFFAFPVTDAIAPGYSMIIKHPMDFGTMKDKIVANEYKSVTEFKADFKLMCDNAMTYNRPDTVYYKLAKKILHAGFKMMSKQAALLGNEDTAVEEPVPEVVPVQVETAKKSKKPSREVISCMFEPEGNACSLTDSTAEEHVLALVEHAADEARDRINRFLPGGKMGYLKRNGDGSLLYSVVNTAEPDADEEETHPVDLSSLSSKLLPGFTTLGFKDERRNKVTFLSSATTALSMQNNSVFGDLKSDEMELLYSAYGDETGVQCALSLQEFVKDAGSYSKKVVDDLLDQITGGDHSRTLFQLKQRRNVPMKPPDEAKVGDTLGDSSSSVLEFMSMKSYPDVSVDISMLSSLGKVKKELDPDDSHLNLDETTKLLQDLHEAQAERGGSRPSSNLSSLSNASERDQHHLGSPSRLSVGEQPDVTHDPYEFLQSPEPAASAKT
Outline: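 MV4-11 cells treated with compound 24 h at 37° C., then fixed, permeabilised and immunostained for BRD9 (anti-BRD9 E4Q3F, Alexa 647 secondary, Hoechst counterstain). High-content imaging quantified nuclear BRD9 signal; % BRD9 remaining normalised to DMSO and 100 nM CFT-8634 controls.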

BRD9 [2] = target: T1, BRD9; test: BRD9 degradation, HiBiT-BRD9 KI HEK293 (LgBiT) cells, NanoGlo Lytic Endpoint assay (Assay Protocol 1); assay type: cell-based; details: BRD9 degradation; for Dmax / Dmax at 1 µM: HEK293; for Dmax: read-out: Dmax; for Dmax at 1 µM: 1 μM compound at 6 h of treatment, read-out: Assay 1 Dmax
Outline: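 HiBiT-tagged BRD9 knock-in HEK293 (LgBiT) cells exposed to compounds for 6 h at 37 °C, 5% CO2. Residual BRD9 measured by HiBiT lytic luminescence. % BRD9 remaining normalised to DMSO-treated cells (high) and no-cell wells (low).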

[3] = Assay protocol 2, BRD9 degradation, read-out: DC50
[4] = MV4-11, Assay protocol 2, BRD9 degradation, read-out: Dmax
[5] = Assay protocol 1, read-out: DC50
[6] = MV4-11, 24 h, Table 2, BRD9 degradation (IF), Assay Protocol 2, MV4-11 cells, read-out: Assay 2 DCmax
[7] = Table 2, BRD9 degradation (IF), Assay Protocol 2, MV4-11 cells, read-out: Assay 2 DC50
[8] = Table 2, Assay Protocol 1, 6 h of treatment, read-out: Assay 1 DC50

Structure (SMILES) | DC50 (BRD9 [1]; [3]) [µM] | Dmax (BRD9 [1]; [4]) [%] | Dmax (BRD9 [2]; Assay protocol 1) [%] | DC50 (BRD9 [2]; [5]) [µM] | Dmax (BRD9 [1]; [6]) [%] | DC50 (BRD9 [1]; [7]) [µM] | Dmax at 1 µM (BRD9 [2]; Table 2, Assay Protocol 1) [%] | DC50 (BRD9 [2]; [8]) [µM]
CCCC(c1ccc(C(=O)N(C)CCCCC(=O)N2CCN(Cc3c(OC)cc(-c4cn(C)c(=O)c(C)c4C)cc3OC)CC2)cc1)N(C)C(=O)/C(C#N)=C/c1nccs1 (mixture of isomers) [Compound B181, (E/Z)-4-(1-(2-cyano-N-methyl-3-(thiazol-2-yl)acrylamido)butyl)-N-(5-(4-(2,6-dimethoxy-4-(1,4,5-trimethyl-6-oxo-1,6-dihydropyridin-3-yl)benzyl)piperazin-1-yl)-5-oxopentyl)-N-methylbenzamide] | 0.01 to 0.025 | 40 to 70 | 40 to 70 |  |  |  |  | 
COc1cc(-c2cn(C)c(=O)c3cnccc23)cc(OC)c1CN1CCN(Cc2cccc3c2CCN(C(=O)/C(C#N)=C/c2nccs2)[C@@H]3C)CC1 (single isomer, unassigned) [Compound A14, (E/Z)-2-(5-((4-(2,6-dimethoxy-4-(2-methyl-1-oxo-1,2-dihydro-2,7-naphthyridin-4-yl)benzyl)piperazin-1-yl)methyl)-1-methyl-1,2,3,4-tetrahydroisoquinoline-2-carbonyl)-3-(thiazol-2-yl)acrylonitrile] |  |  |  |  | 40 to 70 | < 0.00125 | 40 to 70 | < 0.00125
COc1cc(-c2cn(C)c(=O)c3cnccc23)cc(OC)c1CN1CCN(Cc2cccc3c2CCN(C(=O)/C(C#N)=C/c2nccs2)[C@H]3C)CC1 (single isomer, unassigned) [Compound A15] |  |  |  |  | 40 to 70 | < 0.00125 | 40 to 70 | 0.00125 to 0.01
COc1cc(-c2cn(C)c(=O)c3cnccc23)cc(OC)c1CN1CCN(Cc2cccc3c2CCN(C(=O)/C(C#N)=C/C(C)(C)C)[C@@H]3C)CC1 (single isomer, unassigned) [Compound A25, (E/Z)-2-(5-((4-(2,6-dimethoxy-4-(2-methyl-1-oxo-1,2-dihydro-2,7-naphthyridin-4-yl)benzyl)piperazin-1-yl)methyl)-1-methyl-1,2,3,4-tetrahydroisoquinoline-2-carbonyl)-4,4-dimethylpent-2-enenitrile] |  |  |  |  | 40 to 70 |  | 40 to 70 | < 0.00125
COc1cc(-c2cn(C)c(=O)c(C)c2C)cc(OC)c1CN1CCCN(Cc2cccc3c2CCN(C(=O)/C(C#N)=C/C2(F)CC2)C3C)CC1 (single isomer, unassigned) [Compound A69, (E/Z)-2-(5-((4-(2,6-dimethoxy-4-(1,4,5-trimethyl-6-oxo-1,6-dihydropyridin-3-yl)benzyl)-1,4-diazepan-1-yl)methyl)-1-methyl-1,2,3,4-tetrahydroisoquinoline-2-carbonyl)-3-(1-fluorocyclopropyl)acrylonitrile] |  |  |  |  | 40 to 70 | 0.025 to 0.3 | > 75 | 0.00125 to 0.01
COc1cc(-c2cn(C)c(=O)c(C)c2C)cc(OC)c1CN1CCC2(CC1)CN(c1cccc(C3CCCN3C(=O)C(C#N)=CC(C)(C)C)c1)C2 (single isomer, unassigned) [Compound B43, 2-(2-(3-(7-(2,6-dimethoxy-4-(1,4,5-trimethyl-6-oxo-1,6-dihydropyridin-3-yl)benzyl)-2,7-diazaspiro[3.5]nonan-2-yl)phenyl)pyrrolidine-1-carbonyl)-4,4-dimethylpent-2-enenitrile] | 0.00125 to 0.01 | 40 to 70 | 40 to 70 | < 0.00125 |  |  |  | 
COc1cc(-c2cn(C)c(=O)c(C)c2C)cc(OC)c1CN1CCC(Oc2cccc3c2CCN(C(=O)/C(C#N)=C/c2cccc(C(F)(F)F)n2)C3C)CC1 (stereo not drawn) [B22] |  | 40 to 70 | > 75 |  |  |  |  | 

Second part, the compound after the results:

DC50 (BRD9 [1]; [3]) [µM] | Dmax (BRD9 [1]; [4]) [%] | Dmax (BRD9 [2]; Assay protocol 1) [%] | DC50 (BRD9 [2]; [5]) [µM] | Dmax (BRD9 [1]; [6]) [%] | DC50 (BRD9 [1]; [7]) [µM] | Dmax at 1 µM (BRD9 [2]; Table 2, Assay Protocol 1) [%] | DC50 (BRD9 [2]; [8]) [µM] | Structure (SMILES)
0.00125 to 0.01 | 40 to 70 | 40 to 70 | 0.025 to 1 |  |  |  |  | CCCC(c1ccc(C(=O)N(C)CCCCCCC(=O)N2CCN(Cc3c(OC)cc(-c4cn(C)c(=O)c(C)c4C)cc3OC)CC2)cc1)N(C)C(=O)/C(C#N)=C/c1nccs1 (mixture of isomers) [Compound B182, (E/Z)-4-(1-(2-cyano-N-methyl-3-(thiazol-2-yl)acrylamido)butyl)-N-(7-(4-(2,6-dimethoxy-4-(1,4,5-trimethyl-6-oxo-1,6-dihydropyridin-3-yl)benzyl)piperazin-1-yl)-7-oxoheptyl)-N-methylbenzamide]
0.00125 to 0.01 | > 75 | 40 to 70 | 0.025 to 1 |  |  |  |  | CCCC(c1ccc(C(=O)N(C)CCCCCCCCC(=O)N2CCN(Cc3c(OC)cc(-c4cn(C)c(=O)c(C)c4C)cc3OC)CC2)cc1)N(C)C(=O)/C(C#N)=C/c1nccs1 (mixture of isomers) [Compound B183, (E/Z)-4-(1-(2-cyano-N-methyl-3-(thiazol-2-yl)acrylamido)butyl)-N-(9-(4-(2,6-dimethoxy-4-(1,4,5-trimethyl-6-oxo-1,6-dihydropyridin-3-yl)benzyl)piperazin-1-yl)-9-oxononyl)-N-methylbenzamide]
0.00125 to 0.01 | 40 to 70 | 40 to 70 |  |  |  |  |  | CCCC(c1cccc(C(=O)N2CCN(Cc3c(OC)cc(-c4cn(C)c(=O)c(C)c4C)cc3OC)CC2)c1)N(C)C(=O)/C(C#N)=C/c1nccs1 (mixture of isomers) [Compound B184, (E/Z)-2-cyano-N-(1-(3-(4-(2,6-dimethoxy-4-(1,4,5-trimethyl-6-oxo-1,6-dihydropyridin-3-yl)benzyl)piperazine-1-carbonyl)phenyl)butyl)-N-methyl-3-(thiazol-2-yl)acrylamide]
0.00125 to 0.01 | > 75 | 40 to 70 | 0.01 to 0.025 |  |  |  |  | CCCC(c1cccc(CCC(=O)N2CCN(Cc3c(OC)cc(-c4cn(C)c(=O)c(C)c4C)cc3OC)CC2)c1)N(C)C(=O)/C(C#N)=C/c1nccs1 (mixture of isomers) [Compound B185, (E/Z)-2-cyano-N-(1-(3-(3-(4-(2,6-dimethoxy-4-(1,4,5-trimethyl-6-oxo-1,6-dihydropyridin-3-yl)benzyl)piperazin-1-yl)-3-oxopropyl)phenyl)butyl)-N-methy-3-(thiazol-2-yl)acrylamide]
< 0.00125 | > 75 | > 75 | 0.00125 to 0.01 |  |  |  |  | CCCC(c1ccccc1CCC(=O)N1CCN(Cc2c(OC)cc(-c3cn(C)c(=O)c(C)c3C)cc2OC)CC1)N(C)C(=O)/C(C#N)=C/c1nccs1 (mixture of isomers) [Compound B186, (E/Z)-2-cyano-N-(1-(2-(3-(4-(2,6-dimethoxy-4-(1,4,5-trimethyl-6-oxo-1,6-dihydropyridin-3-yl)benzyl)piperazin-1-yl)-3-oxopropyl)phenyl)butyl)-N-methyl-3-(thiazol-2-yl)acrylamide]
0.00125 to 0.01 | > 75 | > 75 | 0.00125 to 0.01 |  |  |  |  | COc1cc(-c2cn(C)c(=O)c(C)c2C)cc(OC)c1CN(C)C1CCN(C(=O)/C(C#N)=C/C23CC(C2)C3)CC1 (mixture of isomers) [Compound B187, (E/Z)-3-(bicyclo[1.1.1]pentan-1-yl)-2-(4-((2,6-dimethoxy-4-(1,4,5-trimethyl-6-oxo-1,6-dihydropyridin-3-yl)benzyl)(methyl)amino)piperidine-1-carbonyl)acrylonitrile]
> 1 | 40 to 70 | 40 to 70 | > 1 |  |  |  |  | COc1cc(-c2cn(C)c(=O)c(C)c2C)cc(OC)c1CN1CCN(Cc2cccc3c2CCN(C(=O)/C(C#N)=C/C2(C)CC2)C3C)CC1 (mixture of isomers) [Compound C27, (E/Z)-2-(5-((4-(2,6-dimethoxy-4-(1,4,5-trimethyl-6-oxo-1,6-dihydropyridin-3-yl)benzyl)piperazin-1-yl)methyl)-1-methyl-1,2,3,4-tetrahydroisoquinoline-2-carbonyl)-3-(1-methylcyclopropyl)acrylonitrile]
0.025 to 1 | 40 to 70 | 25 to 40 |  |  |  |  |  | COc1cc(-c2cn(C)c(=O)c(C)c2C)cc(OC)c1CN1CCN(c2cccc3c2CCN(C(=O)/C(C#N)=C/c2cccc(Br)n2)C3C)CC1 (single isomer, unassigned) [Compound C28, (E/Z)-3-(6-bromopyridin-2-yl)-2-(5-(4-(2,6-dimethoxy-4-(1,4,5-trimethyl-6-oxo-1,6-dihydropyridin-3-yl)benzyl)piperazin-1-yl)-1-methyl-1,2,3,4-tetrahydroisoquinoline-2-carbonyl)acrylonitrile]
